# According to patent publication US11572353B2, “Alkynyl-substituted heterocyclic compound, preparation method therefor and medical use thereof” (BEIJING INNOCARE PHARMA TECH CO., LTD., priority 2016, dated 2023):
# “Also recorded” adds a separate entry of the source. Read-outs that look alike come from different tables or passages of the source.
# Assays:
# Hep3B hepatoma cell line = experiment: Inhibition on the proliferation of Hep3B cells (luminescent cell viability assay); format: cell-based; details: Homo sapiens, 72 hours
# Protocol: The effect of the compounds of the present invention on cell proliferation of Hep3B hepatoma cell line was assessed using a luminescent cell viability assay (Table 2).
# (§1) CellTilter-Glo reagent (Promega, Cat. No. G7572) consists of CTG lyophilized powder and CTG buffer. Before use, the lyophilized powder needs to be dissolved in the buffer.
# (§2) After overnight incubation, 3 μL of DMEM diluted compound was added to each well, which was then gently centrifuged to mix well, and then the 384-well plate was placed in a 37° C., 5% CO2 incubator to continue the culture, and after 72 hours, the plate was taken out and allowed to stand at room temperature for 30 minutes, next added 15 μL of CTG reagent per well, which was warmed up to room temperature, the plate was shaken gently on a shaker for 3 minutes to ensure sufficient cell lysis, allowed to stand 10 minutes to stabilize the luminescence signal, and then read the luminescence signal with EnVision (Perkin Elmer).
# (§3) Where Y is the percentage of inhibition, Bottom is the bottom platform value of the S-curve, Top is the top platform value of the S-curve, X is the logarithm of the concentration of the compound to be tested, and slope factor is the slope coefficient of the curve.
# [1] = target: human recombinant FGFR2 catalytic domain protein (amino acid 400-821) (Homo sapiens (Human), UniProt P21802); experiment: FGFR2 activity inhibition test (HTRF kinase assay); format: biochemical; details: 50 μM ATP
# Protocol: (§4) The effect of the compounds of the present invention on the in vitro activity of FGFR was assessed by measuring the phosphorylation level of the substrate in a kinase reaction using the HTRF kinase assay kit (Table 1).
# (§5) If the IC50 value of a compound is very low, the initial concentration of the compound can be lowered.
# (§6) The IC50 value of the compound was calculated from the 10 concentration points using the XLfit software in Excel by the following formula: Y=Bottom+(Top−Bottom)/(1+10^((log IC50−X)*slope factor))
# as §3
# [2] = target: human recombinant FGFR4 catalytic domain protein (amino acid 460-802) (Homo sapiens (Human), UniProt P22455); experiment: FGFR4 activity inhibition test (HTRF kinase assay); format: biochemical; details: 90 μM ATP
# Protocol: as §4, §5, §6, §3
# [3] = system: SNU-16 gastric cancer cell line; experiment: Inhibition on the proliferation of SNU-16 cells (luminescent cell viability assay); format: cell-based; details: Homo sapiens, 72 hours
# Protocol: as §1, §2, §3
# The effect of the compounds of the present invention on cell proliferation of SNU-16 gastric cancer cell line was assessed using a luminescent cell viability assay (Table 2).
# (§7) For the experimental method, please refer to the method for determining the inhibition on the proliferation of Hep3B cells.
# [4] = system: FGFR2-overexpressed SNU-16 gastric cancer cell line derived xenograft tumors; format: in vivo; details: for TGI % (tumor growth inhibition) / mean tumor size: day 25
# Protocol: The cells were harvested in 90% confluence and no less than 90% viability, and then counted. […] Mice were inoculated subcutaneously into the right flank with 200 uL of 8×10^6 SNU-16 cells resuspended in 50% Matrigel (purchased from Corning). […] Dosing was initiated on day 0 and effects on tumor growth were evaluated by measuring the percentage of tumor growth inhibition (TGI) at the end of the study. Tolerability was assessed by body weight loss, lethality, and clinical signs of adverse treatment-related side effects. Tumor volume and body weight were measured twice per week during the administration period. The percentage of TGI was determined on day 25 after treatment. The difference between the mean value of tumor volume in the treatment group and that in the vehicle group was analyzed for significance using one-way ANOVA (followed by Dennett's test) at each time point and a P<0.05 was considered to be statistically significant.
# [5] = target: human recombinant FGFR3 catalytic domain protein (amino acid 399-806) (Homo sapiens (Human), UniProt P22607); experiment: FGFR3 activity inhibition test (HTRF kinase assay); format: biochemical; details: 90 μM ATP
# Protocol: as §4, §5, §6, §3
# [6] = system: RT4 bladder cancer cell line; experiment: Inhibition on the proliferation of RT4 cells (luminescent cell viability assay); format: cell-based; details: Homo sapiens, RT-4, 72 hours
# Protocol: as §1, §2, §3
# The effect of the compounds of the present invention on cell proliferation of the RT4 bladder cancer cell line was assessed using a luminescent cell viability assay (Table 2).
# as §7
# [7] = target: human recombinant FGFR1 catalytic domain protein (amino acid 308-731) (Homo sapiens (Human), UniProt P11362); experiment: FGFR1 activity inhibition test (HTRF kinase assay); format: biochemical; details: 40 μM ATP
# Protocol: as §4, §5, §6, §3
# Sequence of human recombinant FGFR3 catalytic domain protein (amino acid 399-806) (P22607 399-806): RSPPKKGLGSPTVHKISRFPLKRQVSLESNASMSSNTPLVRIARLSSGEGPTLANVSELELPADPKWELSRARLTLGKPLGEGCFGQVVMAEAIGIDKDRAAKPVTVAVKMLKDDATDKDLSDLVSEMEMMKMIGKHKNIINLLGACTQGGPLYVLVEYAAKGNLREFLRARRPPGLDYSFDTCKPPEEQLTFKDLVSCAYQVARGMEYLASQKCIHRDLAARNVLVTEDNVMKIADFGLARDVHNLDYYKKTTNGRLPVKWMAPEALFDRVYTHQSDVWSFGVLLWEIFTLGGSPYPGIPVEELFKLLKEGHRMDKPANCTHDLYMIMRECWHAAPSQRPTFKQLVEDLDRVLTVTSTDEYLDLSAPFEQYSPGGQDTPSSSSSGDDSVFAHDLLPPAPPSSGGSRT
# Sequence of human recombinant FGFR2 catalytic domain protein (amino acid 400-821) (P21802 400-821): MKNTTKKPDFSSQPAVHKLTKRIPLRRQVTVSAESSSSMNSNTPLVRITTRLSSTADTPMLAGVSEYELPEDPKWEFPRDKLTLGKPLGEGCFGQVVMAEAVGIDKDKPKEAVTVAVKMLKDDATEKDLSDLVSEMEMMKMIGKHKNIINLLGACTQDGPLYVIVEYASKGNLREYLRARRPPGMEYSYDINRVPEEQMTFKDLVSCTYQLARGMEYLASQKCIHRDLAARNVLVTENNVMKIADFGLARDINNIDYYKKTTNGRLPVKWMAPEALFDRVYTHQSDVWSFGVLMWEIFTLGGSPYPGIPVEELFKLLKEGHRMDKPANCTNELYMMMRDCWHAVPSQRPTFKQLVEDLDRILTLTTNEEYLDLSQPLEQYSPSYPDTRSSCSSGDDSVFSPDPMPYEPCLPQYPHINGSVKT
# Sequence of human recombinant FGFR4 catalytic domain protein (amino acid 460-802) (P22455 460-802): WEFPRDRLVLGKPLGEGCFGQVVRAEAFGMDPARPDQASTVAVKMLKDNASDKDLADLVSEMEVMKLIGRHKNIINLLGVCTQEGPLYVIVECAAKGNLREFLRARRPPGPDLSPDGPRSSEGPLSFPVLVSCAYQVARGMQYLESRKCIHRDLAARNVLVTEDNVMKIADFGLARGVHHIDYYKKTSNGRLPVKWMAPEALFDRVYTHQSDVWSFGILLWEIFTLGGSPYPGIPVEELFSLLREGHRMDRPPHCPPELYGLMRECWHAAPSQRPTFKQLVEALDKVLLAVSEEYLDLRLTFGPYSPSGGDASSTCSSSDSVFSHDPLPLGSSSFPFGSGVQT
# Sequence of human recombinant FGFR1 catalytic domain protein (amino acid 308-731) (P11362 other isoform, or with tags, fused parts or gaps): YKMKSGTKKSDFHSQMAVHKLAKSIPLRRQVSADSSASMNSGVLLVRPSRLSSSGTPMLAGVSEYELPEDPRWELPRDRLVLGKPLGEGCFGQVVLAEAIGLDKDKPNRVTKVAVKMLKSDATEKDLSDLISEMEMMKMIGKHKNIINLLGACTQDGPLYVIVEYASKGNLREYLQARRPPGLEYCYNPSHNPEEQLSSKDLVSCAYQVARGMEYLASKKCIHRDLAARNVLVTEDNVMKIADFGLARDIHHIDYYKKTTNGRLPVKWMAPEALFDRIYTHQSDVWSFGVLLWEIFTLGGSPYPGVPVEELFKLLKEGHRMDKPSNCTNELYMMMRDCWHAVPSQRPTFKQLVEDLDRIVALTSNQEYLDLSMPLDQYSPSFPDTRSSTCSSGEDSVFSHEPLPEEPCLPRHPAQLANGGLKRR
SMILES,IC50 (Hep3B hepatoma cell line) [µM],IC50 [1] [µM],IC50 [2] [µM],IC50 [3] [µM],IC50 [5] [µM],IC50 [6] [µM],IC50 [7] [µM],further results
"C=CC(=O)N1CC[C@H](n2nc(C#Cc3cc(OC)cc(OC)c3)c(C(N)=O)c2NC)C1 [Compound 21, (S)-1-(1-acryloylpyrrolidin-3-yl)-3-((3,5-dimethoxyphenyl)ethynyl)-5-(methylamino)-1H-pyrazole-4-carboxamide]",< 0.01,< 0.01,< 0.01,< 0.01,< 0.01,< 0.01,< 0.01,"TGI % (tumor growth inhibition) ([4]; 0.3 mg/kg oral BID for 25 days): 91.0%; mean tumor size ([4]; 0.3 mg/kg oral BID for 25 days): 240 mm^3; TGI % (tumor growth inhibition) ([4]; 1 mg/kg oral BID for 25 days): 88.3%; mean tumor size ([4]; 1 mg/kg oral BID for 25 days): 261 mm^3; TGI % (tumor growth inhibition) ([4]; 3 mg/kg oral BID for 25 days): 95.9%; mean tumor size ([4]; 3 mg/kg oral BID for 25 days): 200 mm^3; locomotor activities ([4]; 10 mg/kg BID): without significant decrease of locomotor activities; mean body weight loss ([4]; 10 mg/kg BID): 11%; TGI % (tumor growth inhibition) ([4]; 10 mg/kg oral BID for 25 days): 108%; mean tumor size ([4]; 10 mg/kg oral BID for 25 days): 103 mm^3; anti-tumor activity (overall) ([4]; 0.3, 1, 3 and 10 mg/kg oral BID): dose-dependently reduced tumor size; also recorded: marked anti-tumor activities; body weight loss ([4]; 3, 1 and 0.3 mg/kg BID, during the study): no body weight loss; tolerability ([4]; 3, 1 and 0.3 mg/kg BID, tumor-bearing animals): well-tolerated; tolerability (overall summary) ([4]; tumor-bearing animals, summary of study): well-tolerated"
"C=CC(=O)N1CC[C@H](n2nc(C#Cc3cc(OC)cc(OC)c3)c(C(N)=O)c2N)C1 [Compound 7, (S)-1-(1-acryloylpyrrolidin-3-yl)-5-amino-3-((3,5-dimethoxyphenyl)ethynyl)-1H-pyrazole-4-carboxamide]",< 0.01,< 0.01,< 0.01,< 0.01,< 0.01,< 0.01,< 0.01,–
"C=CC(=O)N1CC[C@H](n2nc(C#Cc3cc(OC)cc(OC)c3)c(C(N)=O)c2NCCO)C1 [Compound 29, (S)-1-(1-acryloylpyrrolidin-3-yl)-3-((3,5-dimethoxyphenyl)ethynyl)-5-((2-hydroxyethyl)amino)-1H-pyrazole-4-carboxamide]",< 0.01,< 0.01,0.01 to 0.1,< 0.01,< 0.01,< 0.01,0.01 to 0.1,–
"C=CC(=O)N1CC[C@H](n2nc(C#Cc3cc(OC)cc(OC)c3F)c(C(N)=O)c2N)C1 [Compound 17, (S)-1-(1-acryloylpyrrolidin-3-yl)-5-amino-3-((2-fluoro-3,5-dimethoxyphenyl)ethynyl)-1H-pyrazole-4-carboxamide]",< 0.01,< 0.01,< 0.01,< 0.01,< 0.01,< 0.01,< 0.01,–

# The next lines start with results.
IC50 (Hep3B hepatoma cell line) [µM],IC50 [1] [µM],IC50 [2] [µM],IC50 [3] [µM],IC50 [5] [µM],IC50 [6] [µM],IC50 [7] [µM],SMILES,further results
0.01 to 0.1,< 0.01,0.01 to 0.1,< 0.01,< 0.01,< 0.01,0.01 to 0.1,"C=CC(=O)N1CC[C@H](n2nc(C#Cc3cc(OC)cc(OC)c3)c(C(N)=O)c2NCCCN2CCOCC2)C1 [Compound 30, (S)-1-(1-acryloylpyrrolidin-3-yl)-3-((3,5-dimethoxyphenyl)ethynyl)-5-((3-morpholinopropyl)amino)-1H-pyrazole-4-carboxamide]",–
0.01 to 0.1,< 0.01,< 0.01,< 0.01,< 0.01,< 0.01,< 0.01,"C=CC(=O)N1CC[C@H](n2nc(C#Cc3cc(OC)cc(OC)c3)c(C(N)=O)c2NCC2CC2)C1 [Compound 26, (S)-1-(1-acryloylpyrrolidin-3-yl)-5-((cyclopropylmethyl)amino)-3-((3,5-dimethoxyphenyl)ethynyl)-1H-pyrazole-4-carboxamide]",–
0.01 to 0.1,0.01 to 0.1,0.01 to 0.1,0.01 to 0.1,0.01 to 0.1,0.01 to 0.1,0.01 to 0.1,"C=CC(=O)N1CC[C@H](n2cc(C(N)=O)c(C#Cc3cc(OC)cc(OC)c3)n2)C1 [Compound 1, (S)-1-(1-acryloylpyrrolidin-3-yl)-3-((3,5-dimethoxyphenyl)ethynyl)-1H-pyrazole-4-carboxamide]",–
< 0.01,< 0.01,0.01 to 0.1,< 0.01,< 0.01,0.01 to 0.1,0.01 to 0.1,"C=CC(=O)N1CC[C@H](n2nc(C#Cc3cc(Cl)ccc3F)c(C(N)=O)c2NC)C1 [Compound 23, (S)-1-(1-acryloylpyrrolidin-3-yl)-3-((5-chloro-2-fluorophenyl)ethynyl)-5-(methylamino)-1H-pyrazole-4-carboxamide]",–
< 0.01,< 0.01,< 0.01,< 0.01,< 0.01,< 0.01,< 0.01,"C=CC(=O)N1CC[C@H](n2nc(C#Cc3cc(OC)cc(OC)c3F)c(C(N)=O)c2NC)C1 [Compound 22, (S)-1-(1-acryloylpyrrolidin-3-yl)-3-((2-fluoro-3,5-dimethoxyphenyl)ethynyl)-5-(methylamino)-1H-pyrazole-4-carboxamide]",–
